Measurements from paper PMC11121064 (International Journal of Molecular Sciences, 2024).

Tests used:
[1] = test system: melanoma A375 tumor cell line; assay: MTT reduction assay, A375 melanoma cells; assay type: cell-based, human; settings: for effect on A375 cell viability: 72 h of exposure; for IC50: MTT, 72 h
Description: (§1) The cytotoxic activity was measured against the melanoma A375 tumor cell line (ECACC) and the human BJ fibroblast cell line (ATCC) using an MTT reduction assay. The selectivity index (SI) was calculated using the following formula: SI = IC50 (BJ)/ IC50 (A375).
The A375 cell line was purchased from the European Collection of Authenticated Cell Cultures (ECACC, Salisbury, UK) and the BJ human fibroblast cell line from the American Type Culture Collection (ATCC, Manassas, VA, USA). All the cell lines were grown as a monolayer in standard conditions: 37 °C, 100% humidity, under an atmosphere of 5% CO2. […] The BJ cell line was grown in EMEM with EBSS, NEAA and sodium pyruvate with L-Glutamine supplemented, 10% fetal bovine serum and 50 IU/mL penicillin/streptomycin.
(§2) Next, the cells were seeded in 96-well plates at a density of 5000 cells per well and incubated overnight to reach the logarithmic growth phase. […] After 72 h, 10 µL of MTT solution (5 g/L) was added into each well and incubated for an additional four hours. Subsequently, the medium was removed, and 100 µL of dimethyl sulfoxide (DMSO) was added into each well. The absorbance was then measured at 570 nm using a SPECTROstar Nano microplate reader (BMG Biotech Inc., Cary, NC, USA)/Tecan Spark 10M. The mean value from three independent BJ and A375 cell cultures was taken to calculate the cell viability, expressed as a percentage of the control values, i.e., untreated cells assumed as 100%.

[2] = test system: human BJ fibroblast cell line; assay: MTT reduction assay, BJ fibroblasts; assay type: cell-based; settings: 72 h
Description: as §1
The A375 cell line was purchased from the European Collection of Authenticated Cell Cultures (ECACC, Salisbury, UK) and the BJ human fibroblast cell line from the American Type Culture Collection (ATCC, Manassas, VA, USA). All the cell lines were grown as a monolayer in standard conditions: 37 °C, 100% humidity, under an atmosphere of 5% CO2. The A375 cells were cultured in Dulbecco’s Modified Eagle Medium supplemented with 15% fetal calf serum and 50 IU/mL penicillin/streptomycin. The BJ cell line was grown in EMEM with EBSS, NEAA and sodium pyruvate with L-Glutamine supplemented, 10% fetal bovine serum and 50 IU/mL penicillin/streptomycin.
as §2

[3] = test system: clot formation and fibrinolysis in human citrate plasma; assay: Clot formation and fibrinolysis test (CL-test); settings: for CLAUC overall potential for clot formation and fibrinolysis / Fmax maximum clotting / Fvo initial plasma clotting velocity / Lmax maximum lysis / Lvo initial clot fibrinolysis velocity / Sc area under the curve of stable clot formation / Sf area under the fibrinolysis curve / Sr area under the clot formation curve / Tc clot stabilization time / Tf plasma clotting time / Tl fibrinolysis time / Tt thrombin time: mean, n = 3
Description: Following this, the impact of the tested complex compounds and their ligands on the overall clot formation and fibrinolysis potential (CLAUC) and individual kinetic parameters was assessed using the CL-test. The analysis was performed using plasma from three different donors.
The blood samples used were residual materials from routine diagnostic studies, destined for disposal as medical waste. […] Platelet-poor plasma (PPP) and red blood cells were obtained using centrifugation at 3000× g for 10 min at room temperature using a Mikro 22R centrifuge (Hettich Zentrifugen, Tuttlingen, Germany). The plasma was used for the hemostasis tests. Before use, the centrifuged erythrocyte mass was washed three times with physiological saline solution to remove the plasma protein residues and other blood cells.
The influence of the compounds on the overall hemostasis potential was determined using the CL-test through continuous measurement of changes in optical transmittance, as described previously [53, 54]. The experiments were conducted using three-fold diluted human citrate plasma, t-PA and thrombin. […] The results are presented as means ± SD (n = 3). The curves were used to determine the kinetic parameters of clot formation, stabilization and fibrinolysis using dedicated software [51]. The following parameters of clot formation were determined: Tt—thrombin time (s), Fmax—maximum clotting (%T), Tf—plasma clotting time (s), Fvo—initial plasma clotting velocity (%T/min), Sr—area under the clot formation curve (%Txmin). The parameters of the clot stabilization phase comprised Tc—clot stabilization time (s) and Sc—area under the curve of stable clot formation (%Txmin). The parameters of fibrinolysis comprised Lmax—maximum lysis (%T), Tl—fibrinolysis time (s), Lvo—initial clot fibrinolysis velocity (%T/min) and Sf—area under the fibrinolysis curve (%Txmin). Additionally, the overall potential for clot formation and fibrinolysis, i.e., CLAUC (%Txmin), was also estimated.

[4] = test system: extrinsic coagulation pathway; assay: Prothrombin time (PT) and INR in human citrated plasma; settings: up to 100 µmol/L; reference PT 9.7–14.6 s, INR 0.8–1.2
Description: The first stage assessed the changes in plasma hemostasis occurring under the influence of the five test compounds. Plasma was incubated with the tested compounds and ligands at six different concentrations ranging from 0.5 to 100 µmol/L. The plasma was obtained from five different volunteers. To evaluate the impact on the extrinsic coagulation pathway, the prothrombin time (PT) was determined in human citrated plasma, expressed in seconds and as the international normalized ratio (INR) (Figure 6 and Figure 7).
The plasma was used for the hemostasis tests.
The results are presented as means ± standard deviation (SD).

## N.N.[Cl][Pt][Cl] [Cisplatin, cisplatin]
[1]
  effect on A375 cell viability: dose-dependent cytotoxic effect
  IC50: 8.5 ± 0.3 µM
[2]
  IC50: 24 ± 0.8 µM

## Clc1ccc(COC(Cn2ccnc2)c2ccc(Cl)cc2Cl)c(Cl)c1 (stereo not drawn) [MCZ, miconazole]
[1]
  effect on A375 cell viability: dose-dependent reduction

## Cc1ncc([N+](=O)[O-])n1CCO [MTZ, metronidazole]
[1]; Homo sapiens, A-375
  IC50: > 100 µM
[2]; Homo sapiens, Fibroblast
  IC50: > 100 µM
[3]; entire concentration range 0.5–100 µmol/L
  effect on CLAUC and kinetic parameters of clot formation and lysis: no significant differences

## Cc1ncc([N+](=O)[O-])n1CCO.Cc1ncc([N+](=O)[O-])n1CCO.O=[N+]([O-])[O-].[Ag+] [[(MTZ)2AgNO3]]
[1]
  IC50: 3 ± 0.3 µM
[2]
  IC50: 46 ± 1.6 µM
[4]
  prolongation of PT and INR beyond the reference range: do not cause pathological prolongation
[3]; 0.5 µmol/L
  CLAUC overall potential for clot formation and fibrinolysis: 287.9 %*min
  Fmax maximum clotting: 64.4%
  Fvo initial plasma clotting velocity: 126.7 %/min
  Lmax maximum lysis: 61.9%
  Lvo initial clot fibrinolysis velocity: 20.9 %/min
  Sc area under the curve of stable clot formation: 118.4 %*min
  Sf area under the fibrinolysis curve: 125.5 %*min
  Sr area under the clot formation curve: 44.1 %*min
  Tc clot stabilization time: 114.3 s
  Tf plasma clotting time: 61.9 s
  Tl fibrinolysis time: 158.7 s
  Tt thrombin time: 21.3 s
[3]; 1.0 µmol/L
  CLAUC overall potential for clot formation and fibrinolysis: 275.7 %*min
  Fmax maximum clotting: 62.2%
  Fvo initial plasma clotting velocity: 126.3 %/min
  Lmax maximum lysis: 61.5%
  Lvo initial clot fibrinolysis velocity: 19.5 %/min
  Sc area under the curve of stable clot formation: 125.5 %*min
  Sf area under the fibrinolysis curve: 105.1 %*min
  Sr area under the clot formation curve: 45.1 %*min
  Tc clot stabilization time: 124.7 s
  Tf plasma clotting time: 65.9 s
  Tl fibrinolysis time: 175.0 s
  Tt thrombin time: 21.6 s
[3]; 5.0 µmol/L
  CLAUC overall potential for clot formation and fibrinolysis: 343.6 %*min
  Fmax maximum clotting: 70.7%
  Fvo initial plasma clotting velocity: 157.7 %/min
  Lmax maximum lysis: 70.5%
  Lvo initial clot fibrinolysis velocity: 21.9 %/min
  Sc area under the curve of stable clot formation: 169.8 %*min
  Sf area under the fibrinolysis curve: 129.1 %*min
  Sr area under the clot formation curve: 44.7 %*min
  Tc clot stabilization time: 146.7 s
  Tf plasma clotting time: 59.4 s
  Tl fibrinolysis time: 199.0 s
  Tt thrombin time: 19.2 s
[3]; 10.0 µmol/L
  CLAUC overall potential for clot formation and fibrinolysis: 284.4 %*min
  Fmax maximum clotting: 61.4%
  Fvo initial plasma clotting velocity: 121.6 %/min
  Lmax maximum lysis: 60.2%
  Lvo initial clot fibrinolysis velocity: 19.5 %/min
  Sc area under the curve of stable clot formation: 126.7 %*min
  Sf area under the fibrinolysis curve: 117.2 %*min
  Sr area under the clot formation curve: 40.5 %*min
  Tc clot stabilization time: 126.7 s
  Tf plasma clotting time: 62.3 s
  Tl fibrinolysis time: 180.3 s
  Tt thrombin time: 23.3 s
[3]; 50.0 µmol/L
  CLAUC overall potential for clot formation and fibrinolysis: 280.7 %*min
  Fmax maximum clotting: 63.8%
  Fvo initial plasma clotting velocity: 129.0 %/min
  Lmax maximum lysis: 61.8%
  Lvo initial clot fibrinolysis velocity: 22.0 %/min
  Sc area under the curve of stable clot formation: 123.25 %*min
  Sf area under the fibrinolysis curve: 118.6 %*min
  Sr area under the clot formation curve: 38.9 %*min
  Tc clot stabilization time: 119.3 s
  Tf plasma clotting time: 56.9 s
  Tl fibrinolysis time: 164.7 s
  Tt thrombin time: 22.5 s
[3]; 100.0 µmol/L
  CLAUC overall potential for clot formation and fibrinolysis: 318.6 %*min
  Fmax maximum clotting: 68.6%
  Fvo initial plasma clotting velocity: 124.9 %/min
  Lmax maximum lysis: 67.2%
  Lvo initial clot fibrinolysis velocity: 29.6 %/min
  Sc area under the curve of stable clot formation: 146.3 %*min
  Sf area under the fibrinolysis curve: 131.8 %*min
  Sr area under the clot formation curve: 40.4 %*min
  Tc clot stabilization time: 131.3 s
  Tf plasma clotting time: 59.2 s
  Tl fibrinolysis time: 188.7 s
  Tt thrombin time: 22.4 s

## Clc1ccc(COC(Cn2ccnc2)c2ccc(Cl)cc2Cl)c(Cl)c1.Clc1ccc(COC(Cn2ccnc2)c2ccc(Cl)cc2Cl)c(Cl)c1.[Ag+].[F][Sb-]([F])([F])([F])([F])[F] (stereo not drawn) [[Ag(MCZ)2SbF6]]
[1]
  IC50: 18.5 ± 2.4 µM
[2]
  IC50: 16 ± 0.9 µM
